Test results: patent US12279600B2, “Genetically modified sterile avians and method for the reconstitution thereof” (The University Court of the University of Edinburgh, priority 2018, dated 2025)
Entries after “also recorded” stand apart in the source; their conditions may differ.

Tests used:
FKBP12F36V = FKBP12F36V (Homo sapiens, UniProt P62942, F37V); details: cited from earlier work
endogenous FKBPs = details: cited from earlier work
[1] = tested on: PGCs containing the targeted icaspase9 gene; assay: PGC culture with dimerization molecule B/B, total cell number after 10 days; format: cell-based, chicken
Description: FIG. 6 500 PGCs (dazl-GFP, dazl-human-Caspase or dazl-chicken-Caspase) were cultured in the presence or absence of the dimerization molecule B/B. After 10 days the total cell number was counted for each well. N=6 for each data point, from three independent experiments.
FIG. 22 500 PGCs (dazl-GFP, dazl-iCaspase, dazl-aviCaspase, ddx4-iCaspase9) were cultured in the presence or absence of the dimerization molecule B/B. After 10 days the total cell number was counted for each well. N=2 for each data point.
PGCs containing the targeted icaspase9 gene were treated with the B/B dimerization compound. […] These cells were mixed with control red fluorescent PGCs and injected into chicken embryos. The chicken embryos were treated with the B/B dimerization compound. Only red PGCs and control GFP PGCs were visible in the embryos. Dazl icaspase9 PGCs were killed (FIG. 7).
The iCaspase9 trasgene was targeted to either the DDX4 or the DAZL locus in PGCs and the cells were then exposed to the dimerisation drug. Cells containing the transgene inserted at the DAZL locus were determined to be inhibited/killed. Without wishing to be bound by theory, the inventors consider the expression levels at embryonic stages are important for ablating germ cells.

[2] = tested on: DAZL-iCasp9 targeted PGCs; assay: Ablation of injected DAZL-iCasp9 targeted PGCs in embryos treated with B/B; format: in vivo, chicken; details: stage HH 16 embryos, 25 nM B/B, gonads viewed at 8 days; FIG. 7
Description: Stage HH 16 embryos were injected with 3500 PGCs transfected with CRISPR reagents to insert an inducible caspase gene and GFP at the dazl locus, and 3500 PGCs transfected with a transposon to insert a cassette for TdTomato expression randomly in the genome. After injection, embryos were dosed with 50 μl of 1× Pen/Strep with or without 25 nM of the dimeriser drug B/B. At 8 days of development, gonads were dissected and viewed under fluorescence. Images are representative of three independent injections for each treatment.
PGCs containing the targeted icaspase9 gene were treated with the B/B dimerization compound. […] These cells were mixed with control red fluorescent PGCs and injected into chicken embryos. The chicken embryos were treated with the B/B dimerization compound.

germ cells = assay: Germ cell ablation in G2 Dazl-iCaspase9 and Dazl-aviCaspase9 embryos after B/B injection; format: in vivo, chicken; details: FIG. 11
Description: B/B was injected into the dorsal aorta of stage 16 chicken embryos (day 2.5). Embryos were incubated and examined at day 10 for GFP fluorescence and DDX4 expression. Left panels; GFP fluorescence in B/B injected iCaspase9 and aviCaspase9 embryos. Right panels: immunofluorescence for DDX4 protein (red).
The G1 Dazl-icaspase9 and Dazl-aviCaspase9 chickens were raised to sexual maturity and mated with wildtype chickens. Fertile eggs from the matings (G2 embryos) were incubated and examined for GFP expression in the gonads. The germ cells in the gonads of both Dazl-icaspase9 and Dazl-avicaspase9 G2 embryos contained GFP+ cells in the gonad (FIG. 9). […] The G2 embryos were tested for germ cell ablation. 1.0 μl of 0.1 mM B/B dimerization reagent (Takara Bio, Inc) was injected into the bloodstream of day 2.5 (stage 16 Hamilton & Hamburger (HH)) chicken embryos. The embryos were incubated for 8 days, PCR-screened to identify iCaspase9 embryos and examined for GFP expression in the gonads. […] Embryos were incubated for 8 days and examined for florescence and germ cells. […] (FIG. 12).

[3] = tested on: endogenous (host) germ cells; assay: Host germ cell ablation and donor PGC colonisation in Dazl-aviCaspase9 G2 embryos with B/B; format: in vivo, chicken; details: Dazl-aviCaspase9 G2 embryos injected with donor TdTomato PGCs and B/B, examined at day 10; FIG. 12
Description: FIG. 12 B/B drug treatment of aviCaspase9 transgenic embryos ablates host germ cells and permits transplanted donor cells to populate the host gonad. Stage HH 16 embryos containing the aviCaspase9 transgene targeted to the DAZL locus, were injected with 200 donor PGCs transfected with a transposon to insert a cassette for TdTomato expression randomly in the genome. Injected cells were in 1 μl of solution containing 0.5 mM (final concentration) B/B dimerization drug. After injection, eggs were dosed with 50 μl of 1× Pen/Strep containing 15 μM (final concentration) B/B dimeriser drug and incubated for 8 days. At 10 days of development, gonads were dissected and viewed under fluorescence.
The G1 Dazl-icaspase9 and Dazl-aviCaspase9 chickens were raised to sexual maturity and mated with wildtype chickens. Fertile eggs from the matings (G2 embryos) were incubated and examined for GFP expression in the gonads. The germ cells in the gonads of both Dazl-icaspase9 and Dazl-avicaspase9 G2 embryos contained GFP+ cells in the gonad (FIG. 9). […] The G2 embryos were tested for germ cell ablation. 1.0 μl of 0.1 mM B/B dimerization reagent (Takara Bio, Inc) was injected into the bloodstream of day 2.5 (stage 16 Hamilton & Hamburger (HH)) chicken embryos. The embryos were incubated for 8 days, PCR-screened to identify iCaspase9 embryos and examined for GFP expression in the gonads. […]

host germ cells = assay: Offspring from Dazl-Caspase9 hosts injected with Silkie donor PGCs and B/B; format: in vivo, chicken; details: Dazl-Caspase9 hosts injected with black skinned Silkie PGCs; FIG. 23
Description: FIG. 23 illustrates the use of caspase9 host ablation using black skinned silkie chicken donor PGCs injected into the iCaspase9 surrogate host embyros which are hatched and bred to produce pure offspring. […] (A-C) The offspring (embryos and chicks) have black skins indicating they came from the donor germ cells.
Utilising caspase 9 expression targeted to the DAZL locus in PGCs, host germ cell ablation and producing offspring from a donor chicken breed were tested using chicken donor PGCs from a black skinned silkie chicken breed. Donor PGCs injected into the caspase host embryos which were then raised to sexual maturity and bred were tested.
In more detail, in this embodiment, black skinned Silkie PGCs were mixed with B/B dimerisation drug and injected into Dazl-Caspase host embryos whilst in the egg. The eggs were sealed and the embryos were hatched then crossed to each other when sexual mature.
50% of offspring should be GFP positive if derived from the endogenous GFP+ caspase9 host PGCs.

[4] = tested on: PGCs containing the targeted nitroreductase gene; assay: PGC culture with nitroreductase pro-drug CB1954, total cell number after 10 days; format: cell-based, chicken
Description: FIG. 5 500 PGCs (Control, CAG-NTR or Dazl-NTR) were cultured in the presence or absence of the nitroreductase pro-drug CB1954 (n=2 for each concentration of pro-drug). After 10 days the total cell number was counted for each well. N=6 for each data point, from three independent experiments.
PGCs containing the targeted nitroreductase gene were treated with the pro-drug CB1954. PGCs died when exposed to the drug.

Chain of FKBP12F36V (P62942 whole entry F37V): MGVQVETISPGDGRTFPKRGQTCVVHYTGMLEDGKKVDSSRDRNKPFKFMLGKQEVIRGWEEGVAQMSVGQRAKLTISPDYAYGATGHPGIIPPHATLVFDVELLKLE

Compound	affinity and selectivity for FKBP12F36V (FKBP12F36V)	interaction with endogenous FKBPs (endogenous FKBPs)	PGC number ([1]; control untargeted PGCs)	PGC number ([1]; human and chicken caspase9 genes targeted to the dazl locus, FIG. 6)	PGC number ([1]; iCaspase 9 targeted to the ddx4 locus)	effect on cells with iCaspase9 transgene ([1]; transgene inserted at the DAZL locus, FIG. 22)	fate of injected Dazl icaspase9 PGCs in embryos [2]	GFP expression in the gonads (germ cells; 1.0 μl of 0.1 mM injected at day 2.5, incubated 8 days)	DDX4 positive or GFP+ germ cells in the gonads (germ cells; cryosections and DDX4 immuno-staining)	endogenous (host) germ cells in the gonad [3]	skin phenotype of offspring (donor origin) (host germ cells)	cell number versus control cells ([4]; NTR targeted to the dazl locus, FIG. 5)	PGC survival on exposure to pro-drug ([4]; PGCs containing the targeted nitroreductase gene)
CC[C@H](C(=O)N1CCCC[C@H]1C(=O)O[C@H](CCc1ccc(OC)c(OC)c1)c1cccc(OCC(=O)NCCNC(=O)COc2cccc([C@@H](CCc3ccc(OC)c(OC)c3)OC(=O)[C@@H]3CCCCN3C(=O)[C@@H](CC)c3cc(OC)c(OC)c(OC)c3)c2)c1)c1cc(OC)c(OC)c(OC)c1 [AP1903]	high affinity and selectivity	minimal interaction	–	–	–	–	–	–	–	–	–	–	–
CC[C@H](C(=O)N1CCCC[C@H]1C(=O)O[C@H](CCc1ccc(OC)c(OC)c1)c1cccc(OCC(=O)NCC(CNC(=O)COc2cccc([C@@H](CCc3ccc(OC)c(OC)c3)OC(=O)[C@@H]3CCCCN3C(=O)[C@@H](CC)c3cc(OC)c(OC)c(OC)c3)c2)CN(C)C)c1)c1cc(OC)c(OC)c(OC)c1 [B/B, AP20187]	high affinity and selectivity	minimal interaction	did not have reduced numbers of PGCs	severely reduced PGC numbers	slightly less PGC number	inhibited/killed	killed; also recorded: ablates	no visible GFP expression	almost no identifiable DDX4 positive or GFP+ cells are present; also recorded: no germ cells	no endogenous (host) germ cells were detected	black skin	–	–
NC(=O)c1cc(N2CC2)c([N+](=O)[O-])cc1[N+](=O)[O-] [CB1954]	–	–	–	–	–	–	–	–	–	–	–	reduction in cell number in comparison to the control cells	died
